Experimental data published in article PMC10726920 (Cancer Medicine, 2023).

Tested on: patients with acute lymphoblastic leukemia
Test: Adverse events (CTCAE version 4.0), Phase II study NCI-9775 of sapanisertib monotherapy
Format: in vivo
Settings: treatment-related; 15 evaluable
Method: Responders could continue on the same dose or proceed to allogeneic hematopoietic cell transplant if available. Non‐responders (but tolerating drug) could increase their dose to 4 mg orally for 21 days every 28 days (dose level + 1) starting in Cycle 3 and 4 mg orally continuously (dose level + 2) starting in Cycle 5 (if they tolerated dose level + 1). Dose reduction was recommended for toxicity (dose level − 1: 2 mg daily for 21 days every 28 days; dose level − 2: 2 mg daily for 5 days/week for 3 weeks every 4 weeks). […] Intrathecal chemotherapy was allowed per institutional standard policies. In‐home blood glucose monitoring was performed daily to monitor blood sugar (a glucometer was given to every patient on the study). Discontinuation of therapy was recommended for disease progression, severe toxicity, lack of response, proceeding to hematopoietic cell transplant, or prolonged delay of the subsequent cycle (>1 month delay for therapy‐related toxicity or >2 months delay for unrelated toxicity).
The primary endpoint was the proportion of successes, which was estimated by the number of successes divided by the total number of evaluable patients. Secondary endpoints of duration of response (CR or CRi) and overall survival (OS) were evaluated using Kaplan–Meier techniques; the frequency of proceeding to allogeneic stem cell transplant after achieving response and adverse events (AEs), as evaluated using reported the NCI Common Terminology Criteria for Adverse Events (CTCAE) version 4.0, were presented using descriptive statistics.

Compound: CC(C)n1nc(-c2ccc3oc(N)nc3c2)c2c(N)ncnc21 [sapanisertib]
- Aspartate aminotransferase increased grade 2: 0 (0) N (%)
- Aspartate aminotransferase increased grade 3: 0 (0) N (%)
- Aspartate aminotransferase increased grade 4: 0 (0) N (%)
- Aspartate aminotransferase increased grade 5: 0 (0) N (%)
- Bloating grade 1: 1 (7) N (%)
- Bloating grade 2: 0 (0) N (%)
- Bloating grade 3: 0 (0) N (%)
- Bloating grade 4: 0 (0) N (%)
- Bloating grade 5: 0 (0) N (%)
- Blood bilirubin increased grade 1: 1 (7) N (%)
- Blood bilirubin increased grade 2: 0 (0) N (%)
- Blood bilirubin increased grade 3: 1 (7) N (%)
- Blood bilirubin increased grade 4: 0 (0) N (%)
- Blood bilirubin increased grade 5: 0 (0) N (%)
- Confusion grade 1: 0 (0) N (%)
- Confusion grade 2: 0 (0) N (%)
- Confusion grade 3: 1 (7) N (%)
- Confusion grade 4: 0 (0) N (%)
- Confusion grade 5: 0 (0) N (%)
- Constipation grade 1: 1 (7) N (%)
- Constipation grade 2: 0 (0) N (%)
- Constipation grade 3: 0 (0) N (%)
- Constipation grade 4: 0 (0) N (%)
- Constipation grade 5: 0 (0) N (%)
- Cough grade 1: 1 (7) N (%)
- Cough grade 2: 0 (0) N (%)
- Cough grade 3: 0 (0) N (%)
- Cough grade 4: 0 (0) N (%)
- Cough grade 5: 0 (0) N (%)
- Delirium grade 1: 0 (0) N (%)
- Delirium grade 2: 0 (0) N (%)
- Delirium grade 3: 1 (7) N (%)
- Delirium grade 4: 0 (0) N (%)
- Delirium grade 5: 0 (0) N (%)
- Diarrhea grade 1: 1 (7) N (%)
- Diarrhea grade 2: 0 (0) N (%)
- Diarrhea grade 3: 0 (0) N (%)
- Diarrhea grade 4: 0 (0) N (%)
- Diarrhea grade 5: 0 (0) N (%)
- Dysgeusia grade 1: 1 (7) N (%)
- Dysgeusia grade 2: 0 (0) N (%)
- Dysgeusia grade 3: 0 (0) N (%)
- Dysgeusia grade 4: 0 (0) N (%)
- Dysgeusia grade 5: 0 (0) N (%)
- Edema limbs grade 1: 1 (7) N (%)
- Edema limbs grade 2: 0 (0) N (%)
- Edema limbs grade 3: 0 (0) N (%)
- Edema limbs grade 4: 0 (0) N (%)
- Edema limbs grade 5: 0 (0) N (%)
- Fall grade 1: 0 (0) N (%)
- Fall grade 2: 1 (7) N (%)
- Fall grade 3: 0 (0) N (%)
- Fall grade 4: 0 (0) N (%)
- Fall grade 5: 0 (0) N (%)
- Fatigue grade 1: 1 (7) N (%)
- Fatigue grade 2: 0 (0) N (%)
- Fatigue grade 3: 1 (7) N (%)
- Fatigue grade 4: 0 (0) N (%)
- Fatigue grade 5: 0 (0) N (%)
- Febrile neutropenia grade 1: 0 (0) N (%)
- Febrile neutropenia grade 2: 0 (0) N (%)
- Febrile neutropenia grade 3: 1 (7) N (%)
- Febrile neutropenia grade 4: 0 (0) N (%)
- Febrile neutropenia grade 5: 0 (0) N (%)
- Fibrinogen decreased grade 1: 0 (0) N (%)
- Fibrinogen decreased grade 2: 0 (0) N (%)
- Fibrinogen decreased grade 3: 1 (7) N (%)
- Fibrinogen decreased grade 4: 0 (0) N (%)
- Fibrinogen decreased grade 5: 0 (0) N (%)
- Hyperglycemia grade 1: 0 (0) N (%)
- Hyperglycemia grade 2: 0 (0) N (%)
- Hyperglycemia grade 3: 2 (13) N (%)
- Hyperglycemia grade 4: 0 (0) N (%)
- Hyperglycemia grade 5: 0 (0) N (%)
- Hypertriglyceridemia grade 1: 1 (7) N (%)
- Hypertriglyceridemia grade 2: 0 (0) N (%)
- Hypertriglyceridemia grade 3: 0 (0) N (%)
- Hypertriglyceridemia grade 4: 0 (0) N (%)
- Hypertriglyceridemia grade 5: 0 (0) N (%)
- Leukocytosis grade 1: 0 (0) N (%)
- Leukocytosis grade 2: 0 (0) N (%)
- Leukocytosis grade 3: 1 (7) N (%)
- Leukocytosis grade 4: 0 (0) N (%)
- Leukocytosis grade 5: 0 (0) N (%)
- Lymphocyte count decreased grade 1: 0 (0) N (%)
- Lymphocyte count decreased grade 2: 0 (0) N (%)
- Lymphocyte count decreased grade 3: 2 (13) N (%)
- Lymphocyte count decreased grade 4: 0 (0) N (%)
- Lymphocyte count decreased grade 5: 0 (0) N (%)
- Mucositis oral grade 1: 0 (0) N (%)
- Mucositis oral grade 2: 0 (0) N (%)
- Mucositis oral grade 3: 3 (20) N (%)
- Mucositis oral grade 4: 0 (0) N (%)
- Mucositis oral grade 5: 0 (0) N (%)
- Neoplasms grade 1: 0 (0) N (%)
- Neoplasms grade 2: 0 (0) N (%)
- Neoplasms grade 3: 1 (7) N (%)
- Neoplasms grade 4: 0 (0) N (%)
- Neoplasms grade 5: 0 (0) N (%)
- Neutrophil count decreased grade 1: 0 (0) N (%)
- Neutrophil count decreased grade 2: 0 (0) N (%)
- Neutrophil count decreased grade 3: 0 (0) N (%)
- Neutrophil count decreased grade 4: 1 (7) N (%)
- Neutrophil count decreased grade 5: 0 (0) N (%)
- Oral pain grade 1: 1 (7) N (%)
- Oral pain grade 2: 0 (0) N (%)
- Oral pain grade 3: 0 (0) N (%)
- Oral pain grade 4: 0 (0) N (%)
- Oral pain grade 5: 0 (0) N (%)
- Paresthesia grade 1: 1 (7) N (%)
- Paresthesia grade 2: 0 (0) N (%)
- Paresthesia grade 3: 0 (0) N (%)
- Paresthesia grade 4: 0 (0) N (%)
- Paresthesia grade 5: 0 (0) N (%)
- Pharyngolaryngeal pain grade 1: 0 (0) N (%)
- Pharyngolaryngeal pain grade 2: 1 (7) N (%)
- Pharyngolaryngeal pain grade 3: 0 (0) N (%)
- Pharyngolaryngeal pain grade 4: 0 (0) N (%)
- Pharyngolaryngeal pain grade 5: 0 (0) N (%)
- Platelet count decreased grade 1: 0 (0) N (%)
- Platelet count decreased grade 2: 0 (0) N (%)
- Platelet count decreased grade 3: 1 (7) N (%)
- Platelet count decreased grade 4: 3 (20) N (%)
- Platelet count decreased grade 5: 0 (0) N (%)
- Pneumonitis grade 1: 0 (0) N (%)
- Pneumonitis grade 2: 0 (0) N (%)
- Pneumonitis grade 3: 1 (7) N (%)
- Pneumonitis grade 4: 0 (0) N (%)
- Pneumonitis grade 5: 0 (0) N (%)
- Pruritus grade 1: 1 (7) N (%)
- Pruritus grade 2: 0 (0) N (%)
- Pruritus grade 3: 0 (0) N (%)
- Pruritus grade 4: 0 (0) N (%)
- Pruritus grade 5: 0 (0) N (%)
- Resp, thoracic, mediastinal grade 1: 0 (0) N (%)
- Resp, thoracic, mediastinal grade 2: 0 (0) N (%)
- Resp, thoracic, mediastinal grade 3: 0 (0) N (%)
- Resp, thoracic, mediastinal grade 4: 1 (7) N (%)
- Resp, thoracic, mediastinal grade 5: 0 (0) N (%)
- Vaginal inflammation grade 1: 0 (0) N (%)
- Vaginal inflammation grade 2: 1 (7) N (%)
- Vaginal inflammation grade 3: 0 (0) N (%)
- Vaginal inflammation grade 4: 0 (0) N (%)
- Vaginal inflammation grade 5: 0 (0) N (%)
- Vomiting grade 1: 1 (7) N (%)
- Vomiting grade 2: 0 (0) N (%)
- Vomiting grade 3: 0 (0) N (%)
- Vomiting grade 4: 0 (0) N (%)
- Vomiting grade 5: 0 (0) N (%)
- Wheezing grade 1: 0 (0) N (%)
- Wheezing grade 2: 1 (7) N (%)
- Wheezing grade 3: 0 (0) N (%)
- Wheezing grade 4: 0 (0) N (%)
- Wheezing grade 5: 0 (0) N (%)
- White blood cell decreased grade 1: 0 (0) N (%)
- White blood cell decreased grade 2: 0 (0) N (%)
- White blood cell decreased grade 3: 0 (0) N (%)
- White blood cell decreased grade 4: 2 (13) N (%)
- White blood cell decreased grade 5: 0 (0) N (%)
